Source: PubChem BioAssay (NCI)
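Following 48 hours of exposure in 96-well plates, responses at five concentrations were used to interpolate endpoints linearly. At the TGI there is no net growth.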

How the values were obtained:
Experiment in all cases: NCI-60 cell line screen, 48 h
CAKI-1 renal = system: CAKI-1 renal
BT-549 breast = system: BT-549 breast
UACC-257 melanoma = system: UACC-257 melanoma
SN12C renal = system: SN12C renal
SF-268 CNS = system: SF-268 CNS
HCT-116 colon = system: HCT-116 colon
U251 CNS = system: U251 CNS
LOX IMVI melanoma = system: LOX IMVI melanoma
HCT-15 colon = system: HCT-15 colon
SK-MEL-28 melanoma = system: SK-MEL-28 melanoma
MALME-3M melanoma = system: MALME-3M melanoma
NCI-H522 lung = system: NCI-H522 lung
PC-3 prostate = system: PC-3 prostate
SK-MEL-2 melanoma = system: SK-MEL-2 melanoma
MDA-N = system: MDA-N
SK-MEL-5 melanoma = system: SK-MEL-5 melanoma
KM12 colon = system: KM12 colon
786-0 renal = system: 786-0 renal
OVCAR-4 ovarian = system: OVCAR-4 ovarian
UACC-62 melanoma = system: UACC-62 melanoma
IGROV1 ovarian = system: IGROV1 ovarian
OVCAR-3 ovarian = system: OVCAR-3 ovarian
NCI-H23 lung = system: NCI-H23 lung
HL-60(TB) leukemia = system: HL-60(TB) leukemia
RXF 393 renal = system: RXF 393 renal
COLO 205 colon = system: COLO 205 colon
NCI-H226 lung = system: NCI-H226 lung
OVCAR-5 ovarian = system: OVCAR-5 ovarian
HCC-2998 colon = system: HCC-2998 colon
SK-OV-3 ovarian = system: SK-OV-3 ovarian
DU-145 prostate = system: DU-145 prostate
RPMI-8226 leukemia = system: RPMI-8226 leukemia
SR leukemia = system: SR leukemia
CCRF-CEM leukemia = system: CCRF-CEM leukemia
EKVX NSCLC = system: EKVX NSCLC
TK-10 renal = system: TK-10 renal
UO-31 renal = system: UO-31 renal
MDA-MB-435 = system: MDA-MB-435
SW-620 colon = system: SW-620 colon
NCI-H460 lung = system: NCI-H460 lung
ACHN renal = system: ACHN renal
SNB-19 CNS = system: SNB-19 CNS
K-562 leukemia = system: K-562 leukemia
HT29 colon = system: HT29 colon
A498 renal = system: A498 renal
HOP-62 NSCLC = system: HOP-62 NSCLC
MDA-MB-231 breast = system: MDA-MB-231 breast
SF-295 CNS = system: SF-295 CNS
HOP-92 NSCLC = system: HOP-92 NSCLC
MOLT-4 leukemia = system: MOLT-4 leukemia
MCF7 breast = system: MCF7 breast
HS 578T breast = system: HS 578T breast
NCI/ADR-RES ovarian = system: NCI/ADR-RES ovarian
SF-539 CNS = system: SF-539 CNS
OVCAR-8 ovarian = system: OVCAR-8 ovarian
M14 melanoma = system: M14 melanoma
A549 NSCLC = system: A549 NSCLC
T-47D breast = system: T-47D breast
SNB-75 CNS = system: SNB-75 CNS

Measured: TGI

CC(=O)OCc1nc(C#N)c(N)o1
> 100 µM: CAKI-1 renal | BT-549 breast | UACC-257 melanoma | SN12C renal | SF-268 CNS | HCT-116 colon | U251 CNS | LOX IMVI melanoma | HCT-15 colon | SK-MEL-28 melanoma | MALME-3M melanoma | NCI-H522 lung | PC-3 prostate | SK-MEL-2 melanoma | MDA-N | SK-MEL-5 melanoma | KM12 colon | 786-0 renal | OVCAR-4 ovarian | UACC-62 melanoma | IGROV1 ovarian | OVCAR-3 ovarian | NCI-H23 lung | HL-60(TB) leukemia | RXF 393 renal | COLO 205 colon | NCI-H226 lung | OVCAR-5 ovarian | HCC-2998 colon | SK-OV-3 ovarian | DU-145 prostate | RPMI-8226 leukemia | SR leukemia | CCRF-CEM leukemia | EKVX NSCLC | TK-10 renal | UO-31 renal | MDA-MB-435 | SW-620 colon | NCI-H460 lung | ACHN renal | SNB-19 CNS | K-562 leukemia | HT29 colon | A498 renal | HOP-62 NSCLC | MDA-MB-231 breast | SF-295 CNS | HOP-92 NSCLC | MOLT-4 leukemia | MCF7 breast | HS 578T breast

COC(=O)c1cc(Br)c(C(=O)C(Cl)(Cl)Cl)[nH]1
> 100 µM: CAKI-1 renal | BT-549 breast | UACC-257 melanoma | SN12C renal | SF-268 CNS | HCT-116 colon | U251 CNS | LOX IMVI melanoma | HCT-15 colon | SK-MEL-28 melanoma | MALME-3M melanoma | NCI-H522 lung | PC-3 prostate | SK-MEL-2 melanoma | MDA-N | SK-MEL-5 melanoma | KM12 colon | 786-0 renal | OVCAR-4 ovarian | UACC-62 melanoma | NCI/ADR-RES ovarian | IGROV1 ovarian | OVCAR-3 ovarian | NCI-H23 lung | HL-60(TB) leukemia | RXF 393 renal | COLO 205 colon | NCI-H226 lung | OVCAR-5 ovarian | SF-539 CNS | SK-OV-3 ovarian | DU-145 prostate | RPMI-8226 leukemia | OVCAR-8 ovarian | CCRF-CEM leukemia | EKVX NSCLC | TK-10 renal | UO-31 renal | MDA-MB-435 | SW-620 colon | NCI-H460 lung | ACHN renal | SNB-19 CNS | K-562 leukemia | M14 melanoma | HT29 colon | A498 renal | A549 NSCLC | HOP-62 NSCLC | MDA-MB-231 breast | SF-295 CNS | HOP-92 NSCLC | T-47D breast | MOLT-4 leukemia | SNB-75 CNS
